Experimental data reported in PubChem BioAssay AID248 (DTP/NCI, 2004).
Inconclusive results and toxic doses are left out. Cut-off read from the data, not from the text of the source: active = T/C of 150% or more; inactive = T/C below 125%.

Test system: L1210 leukemia ip in BDF1 mice, survival T/C
Test: NCI In Vivo Anticancer Drug Screen. Data for tumor model L1210 Leukemia (intraperitoneal) in B6D2F1 (BDF1) mice
Settings: endpoint: mean survival time, higher = longer survival
Summary of the method: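 Read-out is survival time, reported as the treated-group measurement over the vehicle-control measurement.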

[1] = dose: 100.0 mg/kg/injection, schedule: Q01DX009 (ip), vehicle: saline with Tween-80
[2] = dose: 200.0 mg/kg/injection, schedule: Q01DX009 (ip), vehicle: saline with Tween-80
[3] = dose: 100.0 mg/kg/injection, schedule: Q01DX001 (ip), vehicle: saline with Tween-80
[4] = dose: 200.0 mg/kg/injection, schedule: Q01DX001 (ip), vehicle: saline with Tween-80
[5] = dose: 400.0 mg/kg/injection, schedule: Q01DX001 (ip), vehicle: saline with Tween-80
[6] = dose: 100.0 mg/kg/injection, schedule: Q04DX003 (ip), vehicle: Klucel (hydroxypropylcellulose) (HPC)
[7] = dose: 200.0 mg/kg/injection, schedule: Q04DX003 (ip), vehicle: Klucel (hydroxypropylcellulose) (HPC)
[8] = dose: 400.0 mg/kg/injection, schedule: Q04DX003 (ip), vehicle: Klucel (hydroxypropylcellulose) (HPC)
[9] = dose: 100.0 mg/kg/injection, schedule: Q04DX002 (ip), vehicle: saline with Tween-80
[10] = dose: 200.0 mg/kg/injection, schedule: Q04DX002 (ip), vehicle: saline with Tween-80
[11] = dose: 400.0 mg/kg/injection, schedule: Q04DX002 (ip), vehicle: saline with Tween-80
[12] = dose: 100.0 mg/kg/injection, schedule: Q04DX003 (ip), vehicle: saline with Tween-80
[13] = dose: 200.0 mg/kg/injection, schedule: Q04DX003 (ip), vehicle: saline with Tween-80
[14] = dose: 400.0 mg/kg/injection, schedule: Q01DX009 (ip), vehicle: saline with Tween-80
[15] = dose: 400.0 mg/kg/injection, schedule: Q04DX003 (ip), vehicle: saline with Tween-80
[16] = dose: 100.0 mg/kg/injection, schedule: Q04DX002 (ip), vehicle: Klucel (hydroxypropylcellulose) (HPC)
[17] = dose: 200.0 mg/kg/injection, schedule: Q04DX002 (ip), vehicle: Klucel (hydroxypropylcellulose) (HPC)
[18] = dose: 400.0 mg/kg/injection, schedule: Q04DX002 (ip), vehicle: Klucel (hydroxypropylcellulose) (HPC)
[19] = dose: 100.0 mg/kg/injection, schedule: Q04DX002 (ip), vehicle: gum acacia
[20] = dose: 200.0 mg/kg/injection, schedule: Q04DX002 (ip), vehicle: gum acacia
[21] = dose: 100.0 mg/kg/injection, schedule: Q01DX001 (ip), vehicle: saline

Measured: T/C

CNS(=O)(=O)c1ccc(NC(=O)CCl)cc1
inactive: dose: 50.0 mg/kg/injection, schedule: Q01DX009 (ip), vehicle: saline with Tween-80 104 % of control | dose: 100.0 mg/kg/injection, schedule: Q01DX001 (ip), vehicle: other 104 % of control | [1] 110 % of control | dose: 100.0 mg/kg/injection, schedule: Q04DX003 (ip), vehicle: other 101 % of control | dose: 200.0 mg/kg/injection, schedule: Q01DX001 (ip), vehicle: other 103 % of control | [2] 119 % of control | dose: 200.0 mg/kg/injection, schedule: Q04DX003 (ip), vehicle: other 98 % of control | dose: 400.0 mg/kg/injection, schedule: Q01DX001 (ip), vehicle: other 100 % of control

COc1cc(/C=C2\CCOC2=O)c([N+](=O)[O-])cc1OC
inactive: dose: 50.0 mg/kg/injection, schedule: Q01DX001 (ip), vehicle: carboxymethylcellulose (CMC) 96 % of control | dose: 100.0 mg/kg/injection, schedule: Q01DX001 (ip), vehicle: carboxymethylcellulose (CMC) 94 % of control | dose: 200.0 mg/kg/injection, schedule: Q01DX001 (ip), vehicle: carboxymethylcellulose (CMC) 94 % of control | dose: 400.0 mg/kg/injection, schedule: Q01DX001 (ip), vehicle: carboxymethylcellulose (CMC) 90 % of control

O=C1CCCCCCCCCC/C1=N/O
inactive: dose: 100.0 mg/kg/injection, schedule: Q01DX001 (ip), vehicle: Klucel (hydroxypropylcellulose) (HPC) 111 % of control | dose: 200.0 mg/kg/injection, schedule: Q01DX001 (ip), vehicle: Klucel (hydroxypropylcellulose) (HPC) 101 % of control | dose: 400.0 mg/kg/injection, schedule: Q01DX001 (ip), vehicle: Klucel (hydroxypropylcellulose) (HPC) 92 % of control

O=S(=O)(NNS(=O)(=O)c1ccccc1)c1ccccc1
inactive: [3] 101 % of control | [4] 94 % of control | [5] 88 % of control

CC1(C)[C@H]2CC[C@@]1(C)C(=O)[C@H]2[N+](=O)[O-]
inactive: [6] 103 % of control | [7] 86 % of control | [8] 93 % of control

CC(=O)OCCc1ccc([N+](=O)[O-])cc1
inactive: [9] 97 % of control | [10] 93 % of control | [11] 97 % of control

O=C(Nc1ccc(Cl)cc1)Oc1ccc(Cl)cc1Cc1ccccc1
inactive: [9] 93 % of control | [10] 118 % of control | [11] 89 % of control

C=CCNC(=S)Nc1ccc(OC(=O)NC2CCCCC2)cc1
inactive: [1] 110 % of control | [12] 110 % of control | [2] 106 % of control | [13] 113 % of control | [14] 102 % of control | [15] 98 % of control

CCCC(O)(CCC)CC(=O)OCC
inactive: dose: 200.0 mg/kg/injection, schedule: Q04DX003 (ip), vehicle: saline sonified 106 % of control | dose: 400.0 mg/kg/injection, schedule: Q04DX003 (ip), vehicle: saline sonified 90 % of control

Cc1ccc(C(=O)OCc2ccccc2CN2CCCCC2C)cc1 (stereo unspecified)
inactive: [16] 94 % of control | [17] 108 % of control | [18] 90 % of control

C[n+]1c(-c2ccc(Cl)c(Cl)c2)c2cc(N)ccc2c2ccccc21
inactive: dose: 3.12 mg/kg/injection, schedule: Q01DX009 (ip), vehicle: water 102 % of control | dose: 6.25 mg/kg/injection, schedule: Q01DX009 (ip), vehicle: water 110 % of control | dose: 12.5 mg/kg/injection, schedule: Q01DX009 (ip), vehicle: water 104 % of control | dose: 12.5 mg/kg/injection, schedule: Q04DX003 (ip), vehicle: water 105 % of control | dose: 25.0 mg/kg/injection, schedule: Q04DX003 (ip), vehicle: water 93 % of control

O=C(O)CCCc1cc(O)c2c(c1O)C(=O)c1ccccc1C2=O
inactive: dose: 100.0 mg/kg/injection, schedule: Q01DX001 (ip), vehicle: saline sonified 98 % of control | dose: 200.0 mg/kg/injection, schedule: Q01DX001 (ip), vehicle: saline sonified 102 % of control | dose: 400.0 mg/kg/injection, schedule: Q01DX001 (ip), vehicle: saline sonified 118 % of control

CCOC(=O)C(=Cc1c[nH]c2ccccc12)C(=O)OCC
inactive: [1] 108 % of control | [12] 96 % of control | [2] 90 % of control | [13] 96 % of control | [14] 92 % of control | [15] 96 % of control

Nc1nc(SCc2ccccc2)c2nnn(C3OC(CO)C(O)C3O)c2n1 (stereo unspecified)
inactive: [3] 101 % of control | [4] 96 % of control | [5] 111 % of control

O=C(O)c1cc2ccccc2cc1O
inactive: [19] 102 % of control | [20] 94 % of control

Cc1cc(C(=O)CC(C)C(=O)O)cc2c1sc1ccccc12 (stereo unspecified)
inactive: [21] 86 % of control | dose: 200.0 mg/kg/injection, schedule: Q01DX001 (ip), vehicle: saline 100 % of control

CNC(=O)Nc1nnnc2ccccc12
inactive: dose: 25.0 mg/kg/injection, schedule: Q04DX003 (ip), vehicle: saline with Tween-80 92 % of control | dose: 50.0 mg/kg/injection, schedule: Q04DX003 (ip), vehicle: saline with Tween-80 94 % of control | [12] 89 % of control

CCOC(=O)c1cnc(SC)nc1N(c1ccccc1)c1ccccc1
inactive: [6] 90 % of control | [7] 86 % of control | [8] 95 % of control

CCOC(=O)Cc1cc(=O)[nH]n(-c2ccccc2)c1=O
inactive: [19] 100 % of control | [20] 89 % of control | dose: 400.0 mg/kg/injection, schedule: Q04DX002 (ip), vehicle: gum acacia 96 % of control

O=C(COc1ccccc1)Nc1ccc([N+](=O)[O-])cc1O
inactive: [6] 97 % of control | [7] 100 % of control | [8] 103 % of control

CCCNC(=O)Oc1ccc(-c2ccccc2)cc1Cl
inactive: [9] 113 % of control | [10] 100 % of control | [11] 97 % of control

CCO/C=N\c1c(C#N)c(CC#N)nn1C
inactive: [16] 102 % of control | [17] 98 % of control | [18] 102 % of control

COc1ccc(NC(=O)NO)cc1
inactive: dose: 50.0 mg/kg/injection, schedule: Q04DX002 (ip), vehicle: saline with Tween-80 108 % of control | [9] 101 % of control | [10] 108 % of control

O=C(O)C1CCCCC1C(=O)Nc1cccc2ccccc12 (stereo unspecified)
inactive: dose: 100.0 mg/kg/injection, schedule: Q01DX009 (ip), vehicle: Klucel (hydroxypropylcellulose) (HPC) 105 % of control | dose: 200.0 mg/kg/injection, schedule: Q01DX009 (ip), vehicle: Klucel (hydroxypropylcellulose) (HPC) 96 % of control | dose: 400.0 mg/kg/injection, schedule: Q01DX009 (ip), vehicle: Klucel (hydroxypropylcellulose) (HPC) 93 % of control

CCCCc1ccccn1
inactive: [21] 96 % of control

O=[N+]([O-])c1cc([N+](=O)[O-])c(Br)cc1F
inactive: dose: 2.5 mg/kg/injection, schedule: Q01DX009 (ip), vehicle: Klucel (hydroxypropylcellulose) (HPC) 92 % of control | dose: 5.0 mg/kg/injection, schedule: Q01DX009 (ip), vehicle: Klucel (hydroxypropylcellulose) (HPC) 99 % of control
